Laboratory results from US20100056565A1, “Heterocyclic Derivatives as M3 Muscarinic Receptors” (priority 2007, published 2010).
Structures can show the parent of a compound that is named as a salt. Where two headings read alike, the source gives them in different places.

Target: T1, Recombinant human M3 receptor (Homo sapiens, UniProt P20309)
T1 construct: expressed in transfected cells; host or cells: CHO-K1 cells (membranes)
Assay: biochemical
Assay type: binding

[1] = SPA format, read-out: M3 Ki (SPA format)

T1 sequence (P20309 whole entry): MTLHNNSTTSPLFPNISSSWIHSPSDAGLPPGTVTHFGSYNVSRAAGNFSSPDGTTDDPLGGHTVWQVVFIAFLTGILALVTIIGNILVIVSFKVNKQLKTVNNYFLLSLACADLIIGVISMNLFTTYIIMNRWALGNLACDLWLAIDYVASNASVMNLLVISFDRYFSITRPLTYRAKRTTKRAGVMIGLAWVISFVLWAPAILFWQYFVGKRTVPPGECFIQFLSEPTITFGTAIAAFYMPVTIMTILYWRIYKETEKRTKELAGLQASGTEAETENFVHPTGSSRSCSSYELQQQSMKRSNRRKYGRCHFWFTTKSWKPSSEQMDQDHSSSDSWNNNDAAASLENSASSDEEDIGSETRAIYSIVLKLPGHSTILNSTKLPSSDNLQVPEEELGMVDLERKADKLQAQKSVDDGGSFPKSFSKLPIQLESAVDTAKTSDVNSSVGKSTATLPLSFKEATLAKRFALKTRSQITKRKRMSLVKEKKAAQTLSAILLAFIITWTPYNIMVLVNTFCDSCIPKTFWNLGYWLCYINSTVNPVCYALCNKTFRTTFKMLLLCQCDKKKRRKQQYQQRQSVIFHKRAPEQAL

Cc1ccc(CO[C@H]2C[N+]3(Cc4cnc([C@](O)(c5ccccc5)C5CCCCC5)o4)CCC2CC3)cc1 [Example 34, (R)-1-[2-((R)—Cyclohexyl-hydroxy-phenyl-methyl)-oxazol-5-ylmethyl]-3-(4-methyl-benzyloxy)-1-azonia-bicyclo[2.2.2]octane; bromide]
Ki [1]: < 5 nM

Cc1ccc(O[C@H]2C[N+]3(Cc4cnc(C(O)(c5ccccc5)c5ccccc5)o4)CCC2CC3)cc1Cl [Example 59, (R)-3-(3-Chloro-4-methyl-phenoxy)-1-[2-(hydroxy-diphenyl-methyl)-oxazol-5-ylmethyl]-1-azonia-bicyclo[2.2.2]octane; bromide]
Ki [1]: < 5 nM

OC(c1ccccc1)(c1ccccc1)c1noc(C[N+]23CCC(CC2)[C@@H](Oc2cccc(C(F)(F)F)c2)C3)n1 [Example 137, (R)-1-[3-(Hydroxy-diphenyl-methyl)-[1,2,4]oxadiazol-5-ylmethyl]-3-(3-trifluoromethyl-phenoxy)-1-azonia-bicyclo[2.2.2]octane; chloride]
Ki [1]: < 5 nM

OC(c1ccccc1)(c1ncc(C[N+]23CCC(CC2)[C@@H](OCc2ccccc2)C3)o1)C1CCCCCCC1 (single isomer, unassigned) [Example 48, formate]
Ki [1]: < 5 nM

OC(c1ccccc1)(c1ccccc1)c1noc(C[N+]23CCC(CC2)[C@@H](Sc2ccccc2)C3)n1 [Example 118, (R)-1-[3-(Hydroxy-diphenyl-methyl)-[1,2,4]oxadiazol-5-ylmethyl]-3-phenylsulfanyl-1-azonia-bicyclo[2.2.2]octane; chloride]
Ki [1]: < 5 nM

OC(c1ccccc1)(c1ccccc1)c1ncc(C[N+]23CCC(CC2)C(SCc2ccccc2)C3)o1 (stereo not shown) [Example 39, 3-Benzylsulfanyl-1-[2-(hydroxy-diphenyl-methyl)-oxazol-5-ylmethyl]-1-azonia-bicyclo[2.2.2]octane; bromide,]
Ki [1]: 5 to 20 nM

OC(c1ccccc1)(c1ccccc1)c1ncc(C[N+]23CCC(CC2)[C@@H](Oc2ccc(F)cc2)C3)o1 [Example 72, (R)-3-(4-Fluoro-phenoxy)-1-[2-(hydroxy-diphenyl-methyl)-oxazol-5-ylmethyl]-1-azonia-bicyclo[2.2.2]octane; bromide]
Ki [1]: < 5 nM

O[C@](c1ccccc1)(c1ncc(C[N+]23CCC(CC2)[C@@H](Oc2cccc(Cl)c2)C3)o1)C1CCCCC1 [Example 65, (R)-3-(3-Chloro-phenoxy)-1-[2-((R)-cyclohexyl-hydroxy-phenyl-methyl)-oxazol-5-ylmethyl]-1-azonia-bicyclo[2.2.2]octane; bromide]
Ki [1]: < 5 nM

OC(c1ccccc1)(c1ccccc1)c1noc(C[N+]23CCC(CC2)[C@@H](Oc2cccc(F)c2)C3)n1 [Example 94, (R)-3-(3-Fluoro-phenoxy)-1-[3-(hydroxy-diphenyl-methyl)-[1,2,4]oxadiazol-5-ylmethyl]-1-azonia-bicyclo[2.2.2]octane; chloride]
Ki [1]: < 5 nM

OC(c1ccccc1)(c1ccccc1)c1ncc(C[N+]23CCC(CC2)[C@@H](Oc2ccc(Cl)c(Cl)c2)C3)o1 [Example 78, (R)-3-(3,4-dichloro-phenoxy)-1-[2-(hydroxy-diphenyl-methyl)-oxazol-5-ylmethyl]-1-azonia-bicyclo[2.2.2]octane; bromide]
Ki [1]: < 5 nM

OC(c1ccccc1)(c1noc(C[N+]23CCC(CC2)[C@@H](SCc2ccccc2)C3)n1)C1CCCCC1 (single isomer, unassigned) [Example 127]
Ki [1]: < 5 nM

CC(C)=CCO[C@H]1C[N+]2(Cc3cnc([C@](O)(c4ccccc4)C4CCCCC4)o3)CCC1CC2 [Example 38, (R)-1-[2-((R)-cyclohexyl-hydroxy-phenyl-methyl)-oxazol-5-ylmethyl]-3-(3-methyl-but-2-enyloxy)-1-azonia-bicyclo[2.2.2]octane; formate]
Ki [1]: < 5 nM

O[C@](c1ccccc1)(c1ncc(C[N+]23CCC(CC2)[C@@H](Oc2ccccc2)C3)o1)C1CCCCC1 [Example 9, (R)-[2-((R)—Cyclohexyl-hydroxy-phenyl-methyl)-oxazol-5-ylmethyl]-3-phenoxy-1-azonia-bicyclo[2.2.2]octane; bromide]
Ki [1]: < 5 nM

OC(c1ccccc1)(c1ccccc1)c1ncc(C[N+]23CCC(CC2)[C@H](COc2ccccc2)C3)o1 [Example 92, (S)-1-[2-(Hydroxy-diphenyl-methyl)-oxazol-5-ylmethyl]-3-phenoxymethyl-1-azonia-bicyclo[2.2.2]octane; bromide]
Ki [1]: 5 to 20 nM

OC(c1ccccc1)(c1ccccc1)c1ncc(C[N+]23CCC(CC2)[C@@H](Oc2ccc(C(F)(F)F)cc2)C3)o1 [Example 57, (R)-1-[2-(Hydroxy-diphenyl-methyl)-oxazol-5-ylmethyl]-3-(4-trifluoromethyl-phenoxy)-1-azonia-bicyclo[2.2.2]octane; bromide]
Ki [1]: 5 to 20 nM

OC(c1ccccc1)(c1noc(C[N+]23CCC(CC2)[C@H](COc2ccccc2)C3)n1)C1CCCCC1 (single isomer, unassigned) [Example 144]
Ki [1]: < 5 nM

OC(c1ccccc1)(c1cc(C[N+]23CCC(CC2)[C@@H](Oc2ccc(F)cc2)C3)on1)C1CCCCC1 (single isomer, unassigned) [Example 143]
Ki [1]: < 5 nM

OC(c1ccccc1)(c1ccccc1)c1ncc(C[N+]23CCC(CC2)[C@@H](OCc2ccc(Cl)cc2)C3)o1 [Example 28, (R)-3-(4-Chloro-benzyloxy-1-[2-(hydroxy-diphenyl-methyl)-oxazol-5-ylmethyl]-1-azonia-bicyclo[2.2.2]octane; bromide]
Ki [1]: 5 to 20 nM

O[C@](c1ccccc1)(c1ncc(C[N+]23CCC(CC2)[C@H](CSc2ccc(F)cc2)C3)o1)C1CCCCC1 [Example 109, (S)-1-[2-((R)—Cyclohexyl-hydroxy-phenyl-methyl)-oxazol-5-ylmethyl]-3-(4-fluoro-phenylsulfanylmethyl)-1-azonia-bicyclo[2.2.2]octane; bromide]
Ki [1]: < 5 nM

O[C@](c1ccccc1)(c1ncc(C[N+]23CCC(CC2)C(COc2cccc(F)c2)C3)o1)C1CCCCC1 (single isomer, unassigned) [Example 85]
Ki [1]: < 5 nM

OC(c1ccccc1)(c1ccccc1)c1ncc(C[N+]23CCC(CC2)[C@@H](OCc2ccccc2)C3)o1 [Example 27, (R)-3-Benzyloxy-1-[2-(hydroxy-diphenyl-methyl)-oxazol-5-ylmethyl]-1-azonia-bicyclo[2.2.2]octane; bromide]
Ki [1]: < 5 nM

O[C@](c1ccccc1)(c1ncc(C[N+]23CCC(CC2)[C@@H](OCc2ccc(Cl)cc2)C3)o1)C1CCCC1 [Example 44, (R)-3-(4-chloro-benzyloxy)-1-[2-((R)-cyclopentyl-hydroxy-phenyl-methyl)-oxazol-5-ylmethyl]-1-azonia-bicyclo[2.2.2]octane; formate]
Ki [1]: < 5 nM

O[C@](c1ccccc1)(c1ncc(C[N+]23CCC(CC2)[C@@H](OCCC2CCCCC2)C3)o1)C1CCCCC1 [Example 53, (R)-3-(2-cyclohexyl-ethoxy)-1-[2-((R)-cyclohexyl-hydroxy-phenyl-methyl)-oxazol-5-ylmethyl]-1-azonia-bicyclo[2.2.2]octane; formate]
Ki [1]: < 5 nM

N#Cc1cccc(O[C@H]2C[N+]3(Cc4nc(C(O)(c5ccccc5)c5ccccc5)no4)CCC2CC3)c1 [Example 139, (R)-3-(3-Cyano-phenoxy)-1-[3-(hydroxy-diphenyl-methyl)-[1,2,4]oxadiazol-5-ylmethyl]-1-azonia-bicyclo[2.2.2]octane; chloride]
Ki [1]: < 5 nM

OC(c1ccccc1)(c1noc(C[N+]23CCC(CC2)[C@@H](OCc2ccc(F)cc2)C3)n1)C1CCCCC1 (single isomer, unassigned) [Example 130]
Ki [1]: < 5 nM

OC(c1ccccc1)(c1ccccc1)c1ncc(C[N+]23CCC(CC2)[C@@H](Oc2ccc4c(c2)OCO4)C3)o1 [Example 79, (R)-3-(Benzo[1,3]dioxal-5-yloxy)-1-[2-(hydroxy-diphenyl-methyl)-oxazol-5-ylmethyl]-1-azonia-bicyclo[2.2.2]octane; bromide]
Ki [1]: < 5 nM

C=CCOCC1C[N+]2(Cc3cnc([C@](O)(c4ccccc4)C4CCCCC4)o3)CCC1CC2 (single isomer, unassigned) [Example 89, formate]
Ki [1]: < 5 nM

OC(c1ccccc1)(c1ccccc1)c1ncc(C[N+]23CCC(CC2)[C@@H](Oc2cccs2)C3)o1 [Example 102, (R)-1-[2-(Hydroxy-diphenyl-methyl)-oxazol-5-ylmethyl]-3-(thiophen-2-yloxy)-1-azonia-bicyclo[2.2.2]octane; bromide]
Ki [1]: 5 to 20 nM

O[C@](c1ccccc1)(c1ncc(C[N+]23CCC(CC2)[C@H](CSc2cccc(F)c2)C3)o1)C1CCCCC1 [Example 111, (S)-1-[2-((R)—Cyclohexyl-hydroxy-phenyl-methyl)-oxazol-5-ylmethyl]-3-(3-fluoro-phenylsulfanylmethyl)-1-azonia-bicyclo[2.2.2]octane; bromide]
Ki [1]: < 5 nM

O=C(N[C@@H]1C[N+]2(Cc3cnc([C@](O)(c4ccccc4)C4CCCCC4)o3)CCC1CC2)c1ccc(Cl)cc1 [Example 19, (S)-3-(4-chloro-benzoylamino)-1-[2-((R)-cyclohexyl-hydroxy-phenyl-methyl)-oxazol-5-ylmethyl]-1-azonia-bicyclo[2.2.2]octane; formate]
Ki [1]: < 5 nM

O[C@](c1ccccc1)(c1ncc(C[N+]23CCC(CC2)C(OCc2ccccc2)C3)o1)C1CCCCC1 (stereo partly drawn) [Example 16, 3-benzyloxy-1-[2-((R)-cyclohexyl-hydroxy-phenyl-methyl)-oxazol-5-ylmethyl]-1-azonia-bicyclo[2.2.2]octane; formate]
Ki [1]: < 5 nM

OC(c1ccccc1)(c1cc(C[N+]23CCC(CC2)C(CSc2ccc(F)cc2)C3)on1)C1CCCCC1 (single isomer, unassigned) [Example 125]
Ki [1]: 5 to 20 nM

O=C(O[C@H]1C[N+]2(Cc3cnc([C@](O)(c4ccccc4)C4CCCCC4)o3)CCC1CC2)c1ccccc1 [Example 14, (R)-3-benzoyloxy-1-[2-((R)-cyclohexyl-hydroxy-phenyl-methyl)-oxazol-5-ylmethyl]-1-azonia-bicyclo[2.2.2]octane; formate]
Ki (M3 Ki (SPA format, SPA format)): 5 to 20 nM

CC(C)CS[C@H]1C[N+]2(Cc3cnc([C@](O)(c4ccccc4)C4CCCCC4)o3)CCC1CC2 [Example 120, (R)-1-[2-((R)—Cyclohexyl-hydroxy-phenyl-methyl)-oxazol-5-ylmethyl]-3-isobutylsulfanyl-1-azonia-bicyclo[2.2.2]octane; bromide]
Ki [1]: < 5 nM
